The source of these data is a melting point compilation (Tetko et al.; mined from patent text by program, amines drawn as free bases though some values may be those of a salt).

Broadly, the melting point is the temperature of the solid-liquid transition. `CCCC(C)(C)C(=O)Oc1ccc(C(=O)CNC(C)(C)C)cc1O` displayed a melting point of 128 to 130 °C.

As for `CNC(=O)N(C)c1nc2c(s1)C(=O)CC(C)(C)C2`, the melting point is 174 to 175 °C.

`CCC(C)(CC)c1ccc(=O)[nH]n1` registered a melting point of 97 to 99 °C.

For `CN(C)CCCCCOc1ccc2oc(-c3ccccc3)cc(=O)c2c1`, the melting point was 82 to 83 °C.

On to `CN(C)c1ccc(-c2cc(=S)ss2)nn1`, for which the melting point is 265 °C.

Molecule `Cc1nnc(NCCCC(C)N2CCNCC2)c2cc3ccccn3c12` (stereo not drawn) displayed a melting point of 110 to 111 °C.

`OC(CNCCNc1ncnc2[nH]ncc12)COc1ccccc1` (stereo not drawn): the melting point is 142 to 144 °C.

Molecule `Cc1cc(-c2cc(C(F)(F)F)n3ncc(C(=O)Nc4cccc(S(N)(=O)=O)c4)c3n2)ccc1Cl` registered a melting point of 275 °C.

Molecule `Cc1sc2c(c1C)C(c1ccc(Cl)cc1)=NC(CC(=O)N1CCOCC1)c1nnc(C)n1-2` (stereo not drawn) came in with a melting point of 252 to 254 °C.

With `Cc1ccc(S(=O)(=O)n2c(-c3cn(C)c4ccc(C=O)cc34)cc3cccnc32)cc1`, the melting point is 188 to 189 °C.

Molecule `O=C(Nc1nncs1)c1sc(Nc2ccccc2)c2c1CCc1cnoc1-2` gave a melting point of 227 to 229 °C.

Regarding `Oc1nc2ccnn2c2ncccc12`, the melting point is > 300 °C.

Regarding `NNC(=O)c1cc2c(Oc3ccc(C(F)(F)F)cc3)cncc2s1`, the melting point was 146 to 147 °C.

The molecule `O=C1NC(=O)c2c1c(-c1ccccc1Cl)cc1c2c(Br)c(CO)n1CCCO` returned a melting point of 203 to 205 °C.

`C=CC1(O)CN2CCC1CC2` (stereo not drawn) showed a melting point of 76 to 80 °C.

As for `CC1(C)CCC(C)(C)c2cc3[nH]c(S)nc3cc21`, the melting point was > 300 °C.

The molecule `COC(=O)c1ccc(-c2ccc(NC(=O)c3ccc(OC)c(C#CCN(C)C)c3)cc2)cc1` yielded a melting point of 234 to 237 °C.

Regarding `O=c1oc(-c2ccc(OCCCc3ccccc3)cc2)cc(O)c1SCCc1ccccc1`, the melting point was in the range of 139 to 142 °C.

For `O=C(O)CNC1CCc2ccc(O)cc21` (stereo not drawn), the melting point was determined as 260 °C.

Molecule `Cc1ccc(-n2nc(C(N)=O)nc2-c2ccccc2)cc1COCCC(C)C` registered a melting point of 83 to 85 °C.

`O=C(O)c1ccc(S(=O)(=O)Oc2ccc(CCc3c(Cc4ccccc4)sc4ccccc34)cc2)cc1O` returned a melting point of 57 to 59 °C.

`NS(=O)(=O)c1nc2cc(O)ccc2s1`: the melting point was 224 °C.

Molecule `CC(C)(C)C12OOC1(c1cc3cc(O[Si](C)(C)C(C)(C)C)ccc3o1)OCC2(C)C` (stereo not drawn) returned a melting point of 117 to 118 °C.

The molecule `Nc1cn(-c2cncc(F)c2)nc1Br` yielded a melting point of 164 to 165 °C.

`COc1ccc(NC(=NC#N)NC(NC(=O)c2ccc(Cl)cc2)C(C)(Cl)Cl)c(OC)n1` (stereo not drawn): the melting point lay in the range of 162 to 163 °C.

As for `C/C(=C\c1ccc(C(=O)O)cc1)c1ccc2c(c1)SCCS2`, the melting point is 236 to 237 °C.

Molecule `O=C(NCCO)c1cccc(-c2cccc3nn(Cc4cccc(F)c4)cc23)c1` gave a melting point of 187 to 188 °C.

In the case of `Cc1nc2ccc(Cl)nn2c1Br`, the melting point is 146 to 148 °C.

For `COc1cc(C(=O)NS(=O)(=O)c2ccccc2C)ccc1Cc1cccc2ccc(CCCCC(=O)N(C)C)cc12`, the melting point lay in the range of 88 to 93 °C.

In turn, `COc1ccc(-c2nn(CC=Cc3ccc(F)cc3F)c(=O)cc2-c2ccncc2)cc1` returned a melting point of 55.4 to 56.9 °C.

`C=C(CCC)C(=O)c1ccc(OC2(C(=O)O)CCC2)c(Cl)c1Cl` gave a melting point of 105 to 106 °C.

As for `CCOC(=O)CN(C)S(=O)(=O)c1c(C(=O)OC)sc2cc(C)ccc12`, the melting point fell in the range of 86 to 87 °C.

Consider `CNc1cc(Oc2ccc3c(c2)OCCN3)ncn1`, for which the melting point is 153 °C.

Turning to `CCc1ccc2ncc(-c3nnn[nH]3)c(=O)n2c1`, the melting point lay within 289 to 290 °C.

With `CC(C)CN(CCc1c[nH]c2ccccc12)C(=O)CCCC(=O)O`, the melting point was 140 to 141 °C.

`O=C(NC1CN2CCC1CC2)c1cc(Cl)cc2oc(-c3ccccc3)nc12` (stereo not drawn): the melting point is 180 to 183 °C.

In turn, `COc1ccc(-c2ocnc2-c2cc(OC)c(Br)c(OC)c2)cc1N` showed a melting point of 180 to 184 °C.

The molecule `C[C@H](CN(C(=O)C1(C)C2CCC1CC2)c1ccccn1)N1CCN(c2cccc3[nH]ccc23)CC1` (stereo partly drawn) had a melting point of 236 to 238 °C.

`O=c1cnn(CCCCCl)c(=O)[nH]1` gave a melting point of 93 °C.

The molecule `Cn1c2ccccc2c(=O)c2c(Cl)cccc21` gave a melting point of 183 to 186 °C.

In turn, `Cc1c(NC(=O)c2ccc(-c3ccc4c(c3)OCO4)cc2F)ccc2cc(CN3CCCC3)cnc12` returned a melting point of 181 to 182 °C.

`Cc1ccc(F)cc1C(=O)Nc1ccc(C(=O)N2Cc3ccccc3Oc3ccccc32)cn1` yielded a melting point of 180 to 186 °C.

`Cc1ccc(F)cc1C(=O)Nc1ccc(C(=O)N2Cc3ccccc3Nc3ncccc32)cn1` displayed a melting point of 102 to 104 °C.

`CC(C)(C)OC(=O)ON1C(C)(C)CC(OC(=O)c2ccccc2)CC1(C)C` yielded a melting point of 109 to 111 °C.

On to `COc1cccc(C(=O)Nc2ccc(C(=O)c3ccccc3)cc2)c1`, for which the melting point lay within 139 to 141 °C.

`C=Cc1c(N)nc(-c2ccc(C)cc2)nc1C(=O)OC`: the melting point is 122 to 123 °C.

In turn, `N#Cc1cccnc1N1CCN(CNC(=O)c2ccccc2)CC1` displayed a melting point of 133 to 136 °C.

`COC(=O)[C@@H]1C[C@@H](O)CN1S(=O)(=O)c1ccc(Cl)c(COc2cccc3c(C)cc(C)nc23)c1Cl`: the melting point was found to be 100 °C.

For `CCOC(=O)c1c(C)nc2[nH]ncc2c1OCC`, the melting point lay in the range of 180 to 182 °C.

In turn, `COc1cccc(Nc2cc(=S)ss2)c1` came in with a melting point of 131 to 134 °C.

`O=C1NC(=O)C(S(=O)(=O)c2cccc3c(Br)cccc23)S1` (stereo not drawn) gave a melting point of 189 to 190 °C.

With `CN(Cc1cccc2c1C(=O)N(C1CCC(=O)NC1=O)C2=O)C(=O)NC1CCCCC1` (stereo not drawn), the melting point lay in the range of 243 to 245 °C.

`CC1(c2ccccc2)OC(C=Cc2cccnc2)=CC1=O` (stereo not drawn) yielded a melting point of 106 to 108 °C.

`COC(=O)C(Oc1nc(OC)cc(OC)n1)C(OC)(c1ccccc1)c1ccccc1` (stereo not drawn): the melting point was 81 °C.

Turning to `CN1Cc2c(C(N)=NO)ncn2-c2ccc(F)c(Cl)c2C1=O`, the melting point was in the range of 228 to 231 °C.

As to `O=C(CC1(c2ccc(OCc3ccc4ccccc4n3)cc2)CCCC1)NS(=O)(=O)Cc1ccccc1`, the melting point came to 171 °C.

Molecule `CC(=O)OCC(OC(C)=O)C(OC(C)=O)C(C=O)OC(C)=O` (stereo not drawn) came in with a melting point of 161 to 162 °C.

`COc1cc(O)c(Cl)c2cc(-c3ccc(O)cc3)oc12` came in with a melting point of 176 to 177 °C.

On to `c1ccc(CN2CCCCC2)c(CN2CCCCC2)c1`, for which the melting point was 86 to 88 °C.

Molecule `CS(=O)(=O)c1ccc(C(=O)Nc2ccc(-n3nc(C4CC4)cc3C3CC3)cc2)cc1` registered a melting point of 171 to 176 °C.

`CN(C)C1CCc2[nH]c3c(CO)cccc3c2C1` (stereo not drawn) yielded a melting point of 227 to 230 °C.

Take `COc1cc(C)ccc1S(=O)(=O)NC(=O)C(c1cc(OC)c2c(c1)OCO2)c1cn(C)c2cc(C=O)ccc12` (stereo not drawn): the melting point is 233 °C.

`COc1ccc(-c2cc3nccnc3[nH]2)cc1OC` returned a melting point of 212 to 214 °C.
